Results taken from publication PMC7722752, “First-in-human Phase 1 open label study of the BET inhibitor ODM-207 in patients with selected solid tumours” (British Journal of Cancer, 2020).
Read-outs that look alike come from different tables or passages of the source.

What was measured:
[1] = system: patients with selected solid tumours
From the text: The study design contained two parts: (1) dose escalation in patients with advanced solid tumours with an innovative single dose accelerated titration procedure in the first cohort (1A), (2) evaluation of food effect on bioavailability (1B). The single-dose accelerated titration procedure in the first cohort involved comparison of measured pharmacokinetic parameters in the first cohort of patients against preclinical models to evaluate whether exposure was within the target range. If the measured exposure was outside the target range (below or above), the protocol allowed for dose adjustment. Dose escalation was performed using a traditional 3 + 3 schedule. […] The relevant national authorities provided regulatory approval and local institutional review boards approved the protocol. All study procedures were conducted in accordance with the Declaration of Helsinki and good clinical practice. All patients provided written informed consent.
The starting dose was chosen as it was reasonably expected to be both pharmacologically active and safe and tolerable. The target exposure for the starting dose was estimated from exposures observed in pre-clinical anti-tumour activity and safety studies. The estimated human dose required was predicted by both human equivalent dose calculations and physiologically-based pharmacokinetic modelling. […] Treatment was taken in the ambulatory setting, except for hospital admissions required for pre-specified study-related procedures.
(§1) Response was assessed using RECIST 1.1 for patients with advanced solid tumours,[20] Prostate Cancer Working Group 3 criteria (PCWG3) for castrate-resistant prostate cancer[21] and Lugano criteria for non-Hodgkin lymphoma.[22]
Safety analyses included all patients who received any doses of treatment. Efficacy evaluation was performed on all patients who received two or more cycles of treatment (≥8 weeks). Data points were excluded from relevant pharmacokinetic and platelet count analyses if samples were taken when the patient was on treatment interruption or within 3 days after resumption of treatment. […] Pre-dose total exposure of <3500 ng/mL was not expected to have significant BET inhibition effect and a level of ≥5000 ng/mL was expected to confer BET inhibition.

[2] = system: non-BET family bromodomains; details: preclinical; cited from earlier work
[3] = Phase 1 study: plasma pharmacokinetics and food effect; assay type: in vivo, human; details: for metabolite/parent ratio based in AUC(0-t): main metabolite = demethylation product
From the text: All patients provided written informed consent.

platelet count = assay: Phase 1 study: platelet count as pharmacodynamic biomarker; details: in vivo
From the text: Platelet count was chosen as a pharmacodynamic biomarker based on the observed robust correlation between BET inhibitor exposure and thrombocytopaenia in preclinical and clinical studies.[13],[14]

selected solid tumours = assay: Phase 1 study: anti-tumour activity (RECIST 1.1, PCWG3, Lugano); assay type: in vivo, human
Procedure: as §1
Efficacy evaluation was performed on all patients who received two or more cycles of treatment (≥8 weeks).

BET = system: BET; set-up: method as in earlier work; details: preclinical; cited from earlier work
[4] = system: breast cancer and leukaemia and prostate cancer xenograft models; set-up: method as in earlier work; details: preclinical; cited from earlier work
[5] = cohort 1A-1 0.6 mg/kg (50 mg) (n = 3)
[6] = cohort 1A-2 1.3 mg/kg (100 mg) (n = 7)

## COc1cc2c(cc1-c1c(C)noc1C)cc(C)c(=O)n2Cc1ccccn1 [ODM-207]
[1]; GRADE 1, Total (n = 35)
  Related AE: Asthenia: 3 (8.6) n (%)
  Related AE: Decreased appetite: 12 (34) n (%)
  Related AE: Diarrhoea: 9 (26) n (%)
  Related AE: Dysgeusia: 4 (11) n (%)
  Related AE: Fatigue: 9 (26) n (%)
  Related AE: Headache: 7 (20) n (%)
  Related AE: Nausea: 13 (37) n (%)
  Related AE: Thrombocytopaenia: 15 (43) n (%)
  Related AE: Vomiting: 7 (20) n (%)
  Related AE: Weight loss: 4 (11) n (%)
[1]; GRADE 2, Total (n = 35)
  Related AE: Asthenia: 3 (8.6) n (%)
  Related AE: Decreased appetite: 8 (23) n (%)
  Related AE: Diarrhoea: 5 (14) n (%)
  Related AE: Dysgeusia: 3 (8.6) n (%)
  Related AE: Fatigue: 6 (17) n (%)
  Related AE: Headache: 3 (8.6) n (%)
  Related AE: Nausea: 4 (11) n (%)
  Related AE: Thrombocytopaenia: 8 (23) n (%)
  Related AE: Vomiting: 3 (8.6) n (%)
  Related AE: Weight loss: 1 (2.9) n (%)
[1]; GRADE 3, Total (n = 35)
  Related AE: Fatigue: 2 (5.7) n (%)
  Related AE: Nausea: 3 (8.6) n (%)
  Related AE: Thrombocytopaenia: 4 (11) n (%)
  Related AE: Weight loss: 1 (2.9) n (%)
[1]; GRADE 4, Total (n = 35)
  Related AE: Thrombocytopaenia: 1 (2.9) n (%)
[1]; Total (n = 35)
  AEs leading to dose reduction: 4 (11) n (%)
  AEs leading to dosing interruption: 19 (54) n (%)
  DLTs: 1 (2.9) n (%)
  Grade ≥ 3 AEs: 19 (54) n (%)
  Related SAEs: 3 (8.6) n (%)
  SAEs: 14 (40) n (%)
[1]; any grade, n = 35
  Common AE: nausea: 66%
[1]; [5]
  AEs leading to dosing interruption: 2 (67) n (%)
  AEs leading to study discontinuation: 1 (33) n (%)
[1]; [6]
  AEs leading to dosing interruption: 4 (57) n (%)
  DLTs: 1 (14) n (%)
  Grade ≥ 3 AEs: 3 (43) n (%)
[1]; cohort 1A-2 1.3 mg/kg (100 mg) (n = 7), oral once daily
  SAEs: 2 (29) n (%)
[1]; cohort 1A-3 1.5 mg/kg (n = 5)
  AEs leading to dosing interruption: 2 (40) n (%)
  AEs leading to study discontinuation: 2 (40) n (%)
  Grade ≥ 3 AEs: 2 (40) n (%)
  SAEs: 2 (40) n (%)
[1]; cohort 1A-4 2 mg/kg (n = 6)
  AEs leading to dose reduction: 2 (33) n (%)
  AEs leading to dosing interruption: 5 (83) n (%)
  AEs leading to study discontinuation: 1 (17) n (%)
  Grade ≥ 3 AEs: 4 (67) n (%)
  Related SAEs: 2 (33) n (%)
  SAEs: 3 (50) n (%)
[1]; cohort 1B-1 1.1 mg/kg (n = 10)
  AEs leading to dose reduction: 1 (10) n (%)
  AEs leading to dosing interruption: 4 (40) n (%)
  AEs leading to study discontinuation: 3 (30) n (%)
  Grade ≥ 3 AEs: 6 (60) n (%)
  SAEs: 3 (30) n (%)
[1]; cohort 1B-2 1.4 mg/kg (n = 4)
  AEs leading to dose reduction: 1 (25) n (%)
  AEs leading to dosing interruption: 2 (50) n (%)
  AEs leading to study discontinuation: 2 (50) n (%)
  Grade ≥ 3 AEs: 4 (100) n (%)
  Related SAEs: 1 (25) n (%)
  SAEs: 4 (100) n (%)
[1]; due to cumulative toxicity beyond the DLT treatment window
  highest studied dose achieved: 2 mg/kg
[1]; n = 35
  Common AE: anorexia: 49%
  Common AE: diarrhoea: 40%
  Common AE: fatigue: 43%
  Common AE: headache: 37%
  Common AE: vomiting: 40%
  Common AE: weight loss: 23%
  deaths on study: five deaths on study, all of which were considered not related to ODM-207
  treatment-related grade ≥3 adverse event: fatigue: 5.7%
  treatment-related grade ≥3 adverse event: nausea: 8.6%
  treatment-related grade ≥3 adverse event: thrombocytopaenia: 14.3%
[1]; of 35 treated patients
  Treatment discontinuation due to AEs: 5 (14%) patients
[1]; one patient, 100 mg (1.9 mg/kg), cohort 1A-2
  dose-limiting toxicity observed: intolerable grade 3 fatigue
[1]; oral once daily, 28-day cycle, based upon observed adverse events beyond the DLT period
  maximum tolerated dose (MTD): 2 mg/kg
[1]; overall, n = 35
  patients who experienced a treatment-related AE: 31 (89%) patients
[2]
  cross-reactivity with non-BET family bromodomains: minimal cross-reactivity
[3]; day 1
  metabolite/parent ratio based in AUC(0-t): 0.1–0.2
[3]; day 15
  metabolite/parent ratio based in AUC(0-t): 0.1–0.5
[3]; dose escalation 0.6–2.0 mg/kg
  exposure versus dose: dose proportional exposure
[3]; food effect cohort, single dose, light breakfast vs overnight fasting
  Plasma exposure (AUC0-24) under fed condition versus fasting condition: 1.5 fold
[3]; n = 28, 95% CI 2.9, 3.8
  increase of mean AUC(0-t) between day 1 and day 15 of dosing: 3.4 fold
[3]; oral
  absorption and elimination (plasma pharmacokinetics): slow absorption and elimination
Platelet count
  correlation between plasma exposure and changes in platelet count over time: strong correlation
  recovery of platelet count upon treatment interruption: Prompt recovery
Selected solid tumours; 21 evaluable patients
  non-CR/non-PD (non-measurable disease) as best response: 6 (29%) patients
  progressive disease (PD) as best response: 9 (43%) patients
  stable disease (SD) as best response: 29%
Selected solid tumours; 21 evaluable patients (≥ 8 weeks of treatment), RECIST
  partial or complete response (PR, CR): None had a partial or complete response
Selected solid tumours; NUT midline carcinoma, four patients
  patients with NMC with SD as best response: One out of four
Selected solid tumours; in vivo
  correlation between progression-free survival and increased exposure: no correlation
  median (range) duration of SD: 16.3 (8.0–23.0) weeks
  median progression-free survival: 2.2 months
  progression-free survival, range: 0.5–9.7 months
Selected solid tumours; of 35 treated patients
  Treatment discontinuation due to disease progression: 28 (80%) patients
Selected solid tumours; prostate cancer patients
  decline in PSA below baseline level: None of the prostate cancer patients showed decline in PSA below baseline level
BET
  BET inhibition potency: highly potent
[4]
  tumour growth inhibition: preclinical evidence of tumour growth inhibition
